According to patent publication US9133204B2, “5-membered heterocyclic amides and related compounds” (H. Lundbeck A/S, priority 2007, dated 2015):

target: T1, P2X7 receptor (Homo sapiens, UniProt Q99572); test: High throughput P2X7 calcium mobilization assay (Example 4A); type: cell-based; conditions: SH-SY5Y cells; 50% decrease in fluorescence response of cells exposed to 80 μM BzATP; Table I
T1 construct: host or cells: SH-SY5Y
T1 sequence (Q99572 1-595): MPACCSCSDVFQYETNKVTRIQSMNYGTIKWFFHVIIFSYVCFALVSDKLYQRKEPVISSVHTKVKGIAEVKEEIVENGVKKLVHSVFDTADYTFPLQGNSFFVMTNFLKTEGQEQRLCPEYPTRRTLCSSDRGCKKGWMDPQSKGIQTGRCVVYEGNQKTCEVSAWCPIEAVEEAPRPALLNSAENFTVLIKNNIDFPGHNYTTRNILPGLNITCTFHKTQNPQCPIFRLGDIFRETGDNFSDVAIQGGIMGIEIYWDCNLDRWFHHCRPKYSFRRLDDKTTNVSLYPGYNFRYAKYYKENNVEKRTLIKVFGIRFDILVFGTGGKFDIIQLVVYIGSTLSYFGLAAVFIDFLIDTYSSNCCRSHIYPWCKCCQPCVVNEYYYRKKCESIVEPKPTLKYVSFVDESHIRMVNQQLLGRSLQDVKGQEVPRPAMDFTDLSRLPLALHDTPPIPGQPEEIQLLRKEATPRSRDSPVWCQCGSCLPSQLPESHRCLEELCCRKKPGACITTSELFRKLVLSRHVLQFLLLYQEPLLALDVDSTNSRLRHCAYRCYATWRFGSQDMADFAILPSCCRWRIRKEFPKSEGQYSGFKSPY
Outline: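 Calcium mobilization read by FLIPR as peak fluorescence over 2 min after adding BzATP to a final 80 μM (about EC50). Beforehand, Fluo-4 AM-loaded SH-SY5Y cells sat 1 h at room temperature with compound at 1–2500 nM in pH 7.4 sucrose/HEPES buffer; signal minus no-agonist wells.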

SMILES	IC50
Cc1nn(-c2ncc(F)c(N)n2)cc1C(=O)NCC(CC(C)C)c1ccc(Cl)cc1 (centres unmarked) [Compound 113, 1-(4-amino-5-fluoropyrimidin-2-yl)-N-[2-(4-chlorophenyl)-4-methylpentyl]-3-methyl-1H-pyrazole-4-carboxamide]	≤ 2000 nM
Cc1cnc(-n2cc(C(=O)NCC34CC5CC(CC(C5)C3)C4)c(C)n2)nc1NCCO [Compound 56, N-(adamantan-1-ylmethyl)-1-{4-[(2-hydroxyethyl)amino]-5-methylpyrimidin-2-yl}-3-methyl-1H-pyrazole-4-carboxamide]	≤ 2000 nM
Cc1ccsc1C(=O)NCC12CC3CC(CC(C3)C1)C2 [Compound 73, N-(1-adamantylmethyl)-3-methylthiophene-2-carboxamide]	≤ 2000 nM
Cc1cnc(-n2cc(C(=O)NCC3(c4ccc(C(F)(F)F)cc4)CCCCC3)c(C(F)(F)F)n2)nc1N [Compound 172, 1-(4-amino-5-methylpyrimidin-2-yl)-3-(trifluoromethyl)-N-({1-[4-(trifluoromethyl)phenyl]cyclohexyl}methyl)-1H-pyrazole-4-carboxamide]	≤ 2000 nM
CCCNC(=O)c1nc(-n2cc(C(=O)NCC34CC5CC(CC(C5)C3)C4)c(C)n2)ncc1C [Compound 108, 2-{4-[(adamantan-1-ylmethyl)carbamoyl]-3-methyl-1H-pyrazol-1-yl}-5-methyl-N-propylpyrimidine-4-carboxamide]	≤ 2000 nM
CCc1nc(-c2cccnc2)sc1C(=O)NCC1(c2cccnc2)CCCCC1 [Compound 166, 4-ethyl-2-pyridin-3-yl-N-[(1-pyridin-3-ylcyclohexyl)methyl]-1,3-thiazole-5-carboxamide]	≤ 2000 nM
Cc1nn(-c2nccc(N)n2)cc1C(=O)NCC(CC(C)C)c1ccc(C(F)(F)F)cc1 (centres unmarked) [Compound 173, 1-(4-aminopyrimidin-2-yl)-3-methyl-N-{4-methyl-2-[4-(trifluoromethyl)phenyl]pentyl}-1H-pyrazole-4-carboxamide]	≤ 2000 nM
Nc1ccnc(-n2cc(C(=O)NCC34CC5CC(CC(C5)C3)C4)c(C3CC3)n2)n1 [Compound 146, N-(adamantan-1-ylmethyl)-1-(4-aminopyrimidin-2-yl)-3-cyclopropyl-1H-pyrazole-4-carboxamide]	≤ 2000 nM
CCc1nc(-n2cc(C(=O)NCC34CC5CC(CC(C5)C3)C4)c(C)n2)ncc1C [Compound 106, N-(adamantan-1-ylmethyl)-1-(4-ethyl-5-methylpyrimidin-2-yl)-3-methyl-1H-pyrazole-4-carboxamide]	≤ 2000 nM
CNc1nc(-n2cc(C(=O)NCC34CC5CC(CC(C5)C3)C4)c(C)n2)ncc1C [Compound 92, N-(adamantan-1-ylmethyl)-3-methyl-1-[5-methyl-4-(methylamino)pyrimidin-2-yl]-1H-pyrazole-4-carboxamide]	≤ 2000 nM
COc1ccc(-n2cc(C(=O)NCC34CC5CC(CC(C5)C3)C4)c(C(C)C)n2)nn1 [Compound 143, N-(adamantan-1-ylmethyl)-3-isopropyl-1-(6-methoxypyridazin-3-yl)-1H-pyrazole-4-carboxamide]	≤ 2000 nM
Cc1nn(-c2cnc(N)cn2)cc1C(=O)NCC12CC3CC(CC(C3)C1)C2 [Compound 61, N-(adamantan-1-ylmethyl)-1-(5-aminopyrazin-2-yl)-3-methyl-1H-pyrazole-4-carboxamide]	≤ 2000 nM
CCCC(CNC(=O)c1cn(-c2ncc(F)c(N)n2)nc1C(F)(F)F)c1ccc(Cl)cc1 (centres unmarked) [Compound 150, 1-(4-amino-5-fluoropyrimidin-2-yl)-N-[2-(4-chlorophenyl)pentyl]-3-(trifluoromethyl)-1H-pyrazole-4-carboxamide]	≤ 2000 nM
Cc1cnc(-n2cc(C(=O)NCC34CC5CC(CC(C5)C3)C4)c(C)n2)nc1-c1ncccn1 [Compound 122, N-(adamantan-1-ylmethyl)-3-methyl-1-(5′-methyl-2,4′-bipyrimidin-2′-yl)-1H-pyrazole-4-carboxamide]	≤ 2000 nM

Further lines, results first:

IC50	SMILES
≤ 2000 nM	CC(C)CC(CNC(=O)c1cn(-c2ncccn2)nc1C(F)(F)F)c1ccccc1 (centres unmarked) [Compound 209, N-(4-methyl-2-phenylpentyl)-1-pyrimidin-2-yl-3-(trifluoromethyl)-1H-pyrazole-4-carboxamide]
≤ 2000 nM	CCc1nc(-c2ncccn2)sc1C(=O)NCC(CC(C)C)c1ccc(C(F)(F)F)cc1 (centres unmarked) [Compound 220, 4-ethyl-N-{4-methyl-2-[4-(trifluoromethyl)phenyl]pentyl}-2-pyrimidin-2-yl-1,3-thiazole-5-carboxamide]
≤ 2000 nM	O=C(NCC1(c2cccnc2)CCCCC1)c1sc(-c2ccccn2)nc1C(F)(F)F [Compound 321, 2-pyridin-2-yl-N-[(1-pyridin-3-ylcyclohexyl)methyl]-4-(trifluoromethyl)-1,3-thiazole-5-carboxamide]
≤ 2000 nM	Cc1nn(-c2cnccn2)cc1C(=O)NCC1(c2ccc(C(F)(F)F)cc2)CCCCC1 [Compound 184, 3-methyl-1-pyrazin-2-yl-N-({1-[4-(trifluoromethyl)phenyl]cyclohexyl}methyl)-1H-pyrazole-4-carboxamide]
≤ 2000 nM	O=C(NCC1(c2ccc(Cl)cc2)CCCCC1)c1cn(-c2ncccn2)nc1C(F)(F)F [Compound 195, N-{[1-(4-chlorophenyl)cyclohexyl]methyl}-1-pyrimidin-2-yl-3-(trifluoromethyl)-1H-pyrazole-4-carboxamide]
≤ 2000 nM	CC(CNC(=O)c1cn(-c2ncccn2)nc1C(F)(F)F)c1ccc(Cl)cc1 (centres unmarked) [Compound 202, N-[2-(4-chlorophenyl)propyl]-1-pyrimidin-2-yl-3-(trifluoromethyl)-1H-pyrazole-4-carboxamide]
≤ 2000 nM	COc1ccnc(-n2cc(C(=O)NCC3(c4cccnc4)CCCCC3)c(C(F)(F)F)n2)n1 [Compound 185, 1-(4-methoxypyrimidin-2-yl)-N-[(1-pyridin-3-ylcyclohexyl)methyl]-3-(trifluoromethyl)-1H-pyrazole-4-carboxamide]
≤ 2000 nM	CCc1nc(-c2ncccn2)sc1C(=O)NCC(CC(C)C)c1ccc(Cl)nc1 (centres unmarked) [Compound 299, N-[2-(6-chloropyridin-3-yl)-4-methylpentyl]-4-ethyl-2-pyrimidin-2-yl-1,3-thiazole-5-carboxamide]
≤ 2000 nM	CCc1nc(-c2ncccn2)sc1C(=O)NCC1(c2ccc(Cl)cc2)CCCCC1 [Compound 276, N-{[1-(4-chlorophenyl)cyclohexyl]methyl}-4-ethyl-2-pyrimidin-2-yl-1,3-thiazole-5-carboxamide]
≤ 2000 nM	Cc1nc(-c2ncccn2)sc1C(=O)NCC(CC(C)C)c1ccc(C(F)(F)F)cc1 (centres unmarked) [Compound 290, 4-methyl-N-{4-methyl-2-[4-(trifluoromethyl)phenyl]pentyl}-2-pyrimidin-2-yl-1,3-thiazole-5-carboxamide]
≤ 2000 nM	COc1ccc(C2(CNC(=O)c3sc(-c4ncccn4)nc3C(F)(F)F)CCCC2)cc1 [Compound 285, N-{[1-(4-methoxyphenyl)cyclopentyl]methyl}-2-pyrimidin-2-yl-4-(trifluoromethyl)-1,3-thiazole-5-carboxamide]
≤ 2000 nM	O=C(NCC1(c2cccnc2)CCCCC1)c1sc(N2CCC(O)CC2)nc1C(F)(F)F [Compound 295, 2-(4-hydroxypiperidin-1-yl)-N-[(1-pyridin-3-ylcyclohexyl)methyl]-4-(trifluoromethyl)-1,3-thiazole-5-carboxamide]
≤ 2000 nM	O=C(NCC1(c2cccnc2)CCCCC1)c1sc(-c2nccs2)nc1C(F)(F)F [Compound 317, N-[(1-pyridin-3-ylcyclohexyl)methyl]-4-(trifluoromethyl)-2,2′-bi-1,3-thiazole-5-carboxamide]

same assay, conditions: SH-SY5Y cells; 50% decrease in fluorescence response of cells exposed to 80 μM BzATP; flag after the MS data in Examples 1-2

IC50	SMILES
≤ 2000 nM	Cc1ccc(C2(CNC(=O)c3cc(-c4ccccc4)nn3C)CCCCC2)cn1 [Compound 20, 1-Methyl-3-phenyl-N-{[1-(methylpyridin-3-yl)cyclohexyl]methyl}-1H-pyrazole-5-carboxamide]
≤ 2000 nM	COc1ccc(-c2nc(C(F)(F)F)c(C(=O)NCC3(c4cccnc4)CCCCC3)s2)cn1 [Compound 28, 2-(6-methoxy-pyridin-3-yl)-4-trifluoromethyl-thiazole-5-carboxylic acid (1-pyridin-3-yl-cyclohexylmethyl)-amide]
≤ 2000 nM	O=C(NCC1(c2cccnc2)CCCCC1)c1sc(N2CCCCS2(=O)=O)nc1C(F)(F)F [Compound 26, 2-(1,1-Dioxido-1,2-thiazinan-2-yl)-N-[(1-pyridin-3-ylcyclohexyl)methyl]-4-(trifluoromethyl)-1,3-thiazole-5-carboxamide]
≤ 2000 nM	Cc1nc(-c2cccnc2)sc1C(=O)NCC(CC(C)C)c1ccc(Cl)cc1 (centres unmarked) [Compound 31, N-[2-(4-Chlorophenyl)-4-methylpentyl}-4-methyl-2-pyridin-3-yl-1,3-thiazole-5-carboxamide]
≤ 2000 nM	Cc1cnc(-n2cc(C(=O)NCC34CC5CC(CC(C5)C3)C4)c(C)n2)nc1C(=O)N1CCOCC1 [Compound 4, N-(Adamantan-1-ylmethyl)-3-methyl-1-[5-methyl-4-(morpholin-4-ylcarbonyl)pyrimidin-2-yl]-1H-pyrazole-4-carboxamide]
